According to patent US9988405B2, “O-phenyl chalcone compounds and uses thereof” (Neopanora Bio-technology (Zhuhai) Ltd., priority 2014, dated 2018):

Assays:
[1] = tested on: doxorubicin resistant breast cancer cell MCF-7/DOX; assay: SRB anti-proliferative assay, drug-resistant MCF-7/DOX; format: cell-based; details: Homo sapiens, MCF7-DOX; doxorubicin resistant MCF-7/DOX, SRB; read-out: Anti-proliferative IC50, MCF-7/DOX
Description: (§1) The present example evaluated the anti-tumor activity of the molecules provided by the present invention. The present example mainly used a method with SRB (sulforhodamine B) dying, in which proteins in the cell were stained with SRB dye to determine protein content in the cell so as to characterize cell growth density. Firstly, the test compound was formulated into a stock solution (10 mM), which was stored at 4° C. in a refrigerator. Prior to beginning the assay, the stock solution was diluted with DMSO into a series of different concentrations. The required concentrations were obtained by diluting with complete growth medium. Well growing cells were seeded in a 96-well plate (5000 cells/well, 100 uL) and cultured in an incubator at 37° C., 5% CO2, and 90% RH. 24 h later, the prepared compound solution (100 μL) was slowly added to cell solution in the 96-well plate, and the well with DMSO (final concentration 0.5%) instead of the drug was used as a drug free control. The plate was incubated for 48 h. In addition, a day 0 plate that was drug free was directly detected after cell seeded in the plate for 24 h. The 96-well plate was taken out and added with trichloroacetic acid (50 μL, final concentration 10%). The plate was incubated at 4° C. for 1 h to fix the cells.
(§2) The plate was washed with ultrapure water and air-dried. The plate was then stained with SRB dye (0.4% in 1% acetic acid, 100 μL) for 30 min at room temperature. The plate was then washed with 1% acetic acid and then air-dried. A Tris base solution (100 μL, 10 mM, pH10.4) was added, after which the plate was gently shaken for 1 h on an orbital shaker to ensure that the dyes were completed dissolved. The optical density (OD) was recorded on a TECAN Infinite M200 Pro multimode reader at 515 nm. The cell growth (% of control)=(OD value of wells added with drug−mean OD value of Day 0 plate)/(OD value of DMSO drug-free control well−mean OD value of Day 0 plate)*100.
(§3) We also evaluated the anti-proliferation activities of selected compounds against drug-resistant cancer cell lines.

[2] = tested on: human ovary cancer cells A2780; assay: SRB anti-proliferative assay, A2780; format: cell-based; details: A2780, SRB, 48 h, read-out: Anti-proliferative IC50, A2780
Description: as §1, §2

[3] = tested on: incristine resistant human ileocecum carcinoma cell HCT-8/VCT; assay: SRB anti-proliferative assay, drug-resistant HCT-8/VCT; format: cell-based; details: HCT8/VCT, vincristine-resistant HCT-8/VCT, SRB, read-out: Anti-proliferative IC50, HCT-8/VCT
Description: as §1, §2, §3

[4] = tested on: human liver cancer cell HepG2; assay: SRB anti-proliferative assay, HepG2; format: cell-based; details: HepG2, SRB, 48 h, read-out: Anti-proliferative IC50, HepG2
Description: as §1, §2

[5] = tested on: A549 cells; assay: Microtubule re-assembly and mitosis on cellular level (confocal immunofluorescence); format: cell-based, human; details: 31 nM
Description: The method was primarily described here below.
A549 cells were seeded in a confocal culture dish at 8×10^4 cells/dish, grown for 24 h and divided into two groups. DMSO (0.5%) was added to one group followed by culture for 24 h. Compound 3 (31 nM) was added to the other group followed by culture for 24 h. Then cells of two dishes were fixed directly (37° C.). The remaining cells were placed in ice for 1 h, then at 37° C. for 0, 5, 10, and 15 min Cells were then fixed with paraformaldehyde (4%) for 15 min. Then cells were subject to permeabilization buffer for 15 min Primary β-tubulin mouse antibody was added and incubated at room temperature for 1 h.
3 on microtubules, microtubule re-assembly and mitosis: a, c-f, was the solvent control group (0.5% DMSO added), b, g-j was test group (31 nM compound no. 3 added), Scale bars: […].

[6] = tested on: human colon cancer cells HCT8; assay: SRB anti-proliferative assay, HCT-8; format: cell-based; details: HCT-8, SRB, 48 h, read-out: Anti-proliferative IC50, HCT-8
Description: as §1, §2

[7] = tested on: human nasopharyngeal carcinoma cells CNE2; assay: SRB anti-proliferative assay, CNE2; format: cell-based; details: CNE-2, CNE2, SRB, 48 h, read-out: Anti-proliferative IC50, CNE2
Description: as §1, §2

[8] = tested on: human lung cancer cells A549; assay: SRB anti-proliferative assay, A549; format: cell-based; details: A549, SRB, 48 h, read-out: Anti-proliferative IC50, A549
Description: as §1, §2

[9] = tested on: human colon cancer cells SW480; assay: SRB anti-proliferative assay, SW480; format: cell-based; details: SW480, SRB, 48 h, read-out: Anti-proliferative IC50, SW480
Description: as §1, §2

[10] = tested on: cis-platinum resistant human lung cancer cell A549/CDDP; assay: SRB anti-proliferative assay, drug-resistant A549/CDDP; format: cell-based; details: cis-platinum resistant A549/CDDP, SRB, read-out: Anti-proliferative IC50, A549/CDDP
Description: as §1, §2, §3

[11] = tested on: Paclitaxel-resistant human ovarian carcinoma cell A2780/TAX; assay: SRB anti-proliferative assay, drug-resistant A2780/TAX; format: cell-based; details: paclitaxel-resistant A2780/TAX, SRB, read-out: Anti-proliferative IC50, A2780/TAX
Description: as §1, §2, §3

[12] = tested on: human breast cancer cells MCF7; assay: SRB anti-proliferative assay, MCF-7; format: cell-based; details: MCF7, MCF-7, SRB, 48 h, read-out: Anti-proliferative IC50, MCF-7
Description: as §1, §2

[13] = tested on: tubulin; assay: Microtubule polymerization inhibition assay (tubulin polymerization assay kit); format: biochemical; details: 2 mg/ml tubulin, 37° C., fluorescence, 1 hour; read-out: IC50 on inhibition of microtubules polymerization
Description: Tubulin polymerization assay kit was used in the example, and the accompanying experimental protocol was followed. The specific method was described below.
Prior to the assay, the compounds were diluted with DMSO into a series of different concentrations and then diluted with sterile ultra-pure water into 10× solution of compounds. A 96-well plate was pre-warmed to 37° C. for 30 min in a multi-functional microplate reader. Reaction solution (2 mg/ml tubulin, 80 mM PIPES pH6.9, 2.0 mM MgCl2, 0.5 mM EGTA, 1.0 mM GTP, 15% glycerin) is prepared by materials needed in microtubule polymerization (tubulin buffer 85 uL, Glycerin buffer 150 μL, general buffer 205 μL, GTP ([…]) 4.4 μL). 5 μL solution of compound were added into the 96-well plate and incubated in a microplate reader for 1 min. DMSO was employed as a control. The plate was taken out and then reaction solution was immediately added ([…]). The plate was then immediately placed back into the reader and vibrated for 5 seconds before recording. The microplate reader was set at 37° C., and monitored in a kinetic model with emission wavelength at 450 nm and excitation wavelength at 360 nm. The plate was mixed and measured every minute and determined for 1 hour. A curve of fluorescence intensity v.s. time was obtained and the inhibition rate was calculated by the following formula. GraphPad Prism software was used to determine the IC50. Inhibition rate=[1−(average value of plateau of test curve−value of time 0)/(average value of plateau of DMSO curve−value of time 0)]*100.

IC50 [1]: 2 nM
IC50 [2]: 13 nM
IC50 [3]: 57 nM
IC50 [4]: 14 nM
IC50 [6]: 16 nM
IC50 [7]: 17 nM
IC50 [8]: 11 nM
IC50 [9]: 12 nM
IC50 [10]: 121 nM
IC50 [11]: 190 nM
IC50 [12]: 65 nM
IC50 [13]: 487 nM
SMILES: COc1ccc(/C=C/C(=O)c2ccccc2-c2cccc(F)c2)cc1O [compound 3, (E)-1-(3′-Fluoro[1,1′-biphenyl]-2-yl)-3-(3-hydroxy-4-methoxyphenyl)prop-2-en-1-one]
Abnormal events in mitotic phase [5]: multipolarization of spindle and multinucleation
Effect on filiform structure of microtubule ([5]; 24 h): microtubule depolymerized to form discreet tublin
Automatic re-assembly (polymerization) of tubulin into microtubule after ice incubation ([5]; ice 1 h then 37° C. 0-15 min): obviously inhibited
